Calls of active or inactive are those of the source. The calls are words filed in the database; no cut-off is given here.
What was measured:
[1] = Toxicity in BALB/c nude mouse xenografted with human A549 cells assessed as body weight loss at 0.75 to 1.5 mg, IT(intratumoral) administered for 21 consecutive days; details: in vivo, other, 504 h, dose 0.75-1.5 mg, time 21 day
MCF7 [2] = experiment: Antiproliferative activity against human MCF7 cells assessed as cell growth inhibition measured after 48 hrs by CCK8 assay; assay type: functional, cell-based; details: MCF7, 48 h
[3] = Toxicity in BALB/c nude mouse xenografted with human A549 cells assessed as body weight loss at 25 to 50 mg/kg, iv administered for 21 consecutive days; assay type: organism-based; details: in vivo, 504 h, dose 25-50 mg/kg, time 21 day
[4] = molecular target: T1, Protein deacetylase HDAC6 (Homo sapiens) (UniProt Q9UBN7); experiment: Inhibition of HDAC6 in human MCF7 cells assessed as increase in alpha tubulin acetylation measured after 48 hrs by Western blot analysis; assay type: cell-based; details: dose 1-10 µM
T1 sequence (whole entry): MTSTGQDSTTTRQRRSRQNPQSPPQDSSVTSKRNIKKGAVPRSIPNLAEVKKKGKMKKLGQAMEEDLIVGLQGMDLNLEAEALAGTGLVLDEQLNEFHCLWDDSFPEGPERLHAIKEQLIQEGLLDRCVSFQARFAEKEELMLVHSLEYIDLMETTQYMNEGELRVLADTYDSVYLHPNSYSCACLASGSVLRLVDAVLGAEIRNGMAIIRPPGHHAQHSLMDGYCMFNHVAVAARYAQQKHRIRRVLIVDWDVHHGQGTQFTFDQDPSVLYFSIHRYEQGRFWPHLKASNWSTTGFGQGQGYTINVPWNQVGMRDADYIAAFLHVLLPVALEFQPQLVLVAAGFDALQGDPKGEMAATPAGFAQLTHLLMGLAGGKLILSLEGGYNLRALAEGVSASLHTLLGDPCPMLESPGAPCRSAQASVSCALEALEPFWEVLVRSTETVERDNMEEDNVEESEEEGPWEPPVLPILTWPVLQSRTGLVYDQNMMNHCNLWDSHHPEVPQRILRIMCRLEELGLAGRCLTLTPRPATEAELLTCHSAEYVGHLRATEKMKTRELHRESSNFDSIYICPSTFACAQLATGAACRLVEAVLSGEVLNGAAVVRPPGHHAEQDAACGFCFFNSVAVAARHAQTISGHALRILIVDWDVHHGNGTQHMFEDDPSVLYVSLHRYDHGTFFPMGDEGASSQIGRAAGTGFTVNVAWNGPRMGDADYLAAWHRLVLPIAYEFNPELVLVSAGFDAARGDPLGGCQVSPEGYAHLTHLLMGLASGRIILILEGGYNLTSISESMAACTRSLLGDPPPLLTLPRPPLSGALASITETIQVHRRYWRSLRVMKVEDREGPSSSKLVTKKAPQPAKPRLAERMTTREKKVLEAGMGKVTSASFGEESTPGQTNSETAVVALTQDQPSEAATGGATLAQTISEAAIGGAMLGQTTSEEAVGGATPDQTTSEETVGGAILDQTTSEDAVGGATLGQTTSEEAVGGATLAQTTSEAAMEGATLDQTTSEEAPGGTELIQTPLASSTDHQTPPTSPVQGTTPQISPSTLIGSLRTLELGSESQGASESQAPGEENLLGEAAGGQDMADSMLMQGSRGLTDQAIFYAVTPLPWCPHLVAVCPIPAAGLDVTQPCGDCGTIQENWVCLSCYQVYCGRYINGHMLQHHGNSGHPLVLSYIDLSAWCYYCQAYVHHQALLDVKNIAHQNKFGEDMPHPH

[5] = molecular target: T1, Protein deacetylase HDAC6 (Homo sapiens); experiment: Inhibition of HDAC6 in human K562 cells assessed as accumulation of acetylation of H3 at 1 to 10 uM measured after 48 hrs by Western blot analysis; assay type: cell-based; details: dose 1-10 µM
MCF7 [6] = experiment: Induction of apoptosis in human MCF7 cells assessed as increase in sum of early and late apoptotic cells at 2.5 to 10 uM measured after 48 hrs by Annexin-V/FITC-propidium iodide staining based flow cytometry analysis; assay type: functional, cell-based; details: dose 2.5-10 µM
Mus musculus = experiment: In vivo inhibition of CDK2/4/6 in BALB/c nude mouse xenografted with human A549 cells assessed as reduction in Rb phosphorylation at 25 to 50 mg/kg, iv administered for 21 consecutive days by immunohistochemical analysis; assay type: functional, organism-based; details: dose 25-50 mg/kg
A549 [7] = experiment: Antitumor activity against human A549 cells xenografted in BALB/c nude mouse assessed as reduction in tumor weight at 25 to 50 mg/kg, iv administered for 21 consecutive days; assay type: functional, organism-based; details: dose 25-50 mg/kg, time 21.0 day
A549 [8] = experiment: Potency index, ratio of SAHA IC50 to test compound IC50 for antiproliferative activity against human A549 cells assessed as cell growth inhibition measured after 48 hrs by CCK8 assay; assay type: functional
A549 [9] = experiment: Antitumor activity against human A549 cells xenografted in BALB/c nude mouse assessed as tumor growth inhibition at 0.75 to 1.5 mg, IT (intratumoral) administered for 21 consecutive days relative to control; assay type: functional; details: dose 0.75-1.5 mg, time 21 day
[10] = Bioavailability in Sprague-Dawley rat at 50 mg/kg, ip measured up to 24 hrs by LC-MS analysis; assay type: ADME, organism-based; details: in vivo
[11] = molecular target: T1, Protein deacetylase HDAC6 (Homo sapiens); experiment: Inhibition of HDAC6 in human K562 cells assessed as increase in alpha tubulin acetylation measured after 48 hrs by Western blot analysis; assay type: cell-based; details: dose 1-10 µM
[12] = molecular target: T2, Cyclin-dependent kinase 2/4/6 (Homo sapiens) (UniProt P11802+P24941+Q00534); experiment: Inhibition of CDK2/4/6 in human A549 cells assessed as decrease in Rb phosphorylation measured after 48 hrs by Western blot analysis; assay type: cell-based; details: dose 1-10 µM
[13] = molecular target: T2, Cyclin-dependent kinase 2/4/6 (Homo sapiens); experiment: Inhibition of CDK2/4/6 in human A549 cells assessed as decrease in Rb phosphorylation at 10 uM incubated for 24 hrs followed by compound washout by DAPI staining based immunofluorescence assay; assay type: cell-based
A549 [14] = experiment: Antitumor activity against human A549 cells xenografted in BALB/c nude mouse assessed as reduction in tumor size at 25 to 50 mg/kg, iv administered for 21 consecutive days; assay type: functional, organism-based; details: dose 25-50 mg/kg, time 21.0 day
K562 = experiment: Induction of apoptosis in human K562 cells assessed as increase in sum of early and late apoptotic cells at 2.5 to 10 uM measured after 48 hrs by Annexin-V/FITC-propidium iodide staining based flow cytometry analysis; assay type: functional, cell-based; details: dose 2.5-10 µM
HeLa = experiment: Potency index, ratio of SAHA IC50 to test compound IC50 for antiproliferative activity against human HeLa cells assessed as cell growth inhibition measured after 48 hrs by CCK8 assay; assay type: functional
A549 [15] = experiment: Antitumor activity against human A549 cells xenografted in BALB/c nude mouse assessed as tumor growth inhibition at 25 mg/kg, iv administered for 21 consecutive days relative to control; assay type: functional; details: 504 h, time 21 day, read-out: TGI
A549 [16] = experiment: Induction of apoptosis in human A549 cells measured after 48 hrs by Annexin-V/FITC-propidium iodide staining based flow cytometry analysis; assay type: functional, cell-based; details: dose 2.5-10 µM
A549 [17] = experiment: Induction of apoptosis in human A549 cells assessed as downregulation of […] protein measured after 48 hrs by Western blot analysis; assay type: functional, cell-based; details: dose 1-10 µM
[18] = Toxicity in iv dosed BALB/c nude mouse assessed as maximum tolerated dose administered once daily for 5 consecutive days; assay type: organism-based; details: in vivo, time 5 day

O=C(CCCO/N=C1/C(=C2/C(=O)Nc3ccccc32)Nc2ccccc21)NO
Activity [1]: Non-Toxic | IC50 (MCF7 [2]): 2.9 µM | Activity [3]: Non-Toxic | inhibition [4]: Dose-Dependent Effect | inhibition [5]: inactive | Activity (MCF7 [6]): Active | inhibition (Mus musculus): Active | Activity (A549 [7]): Active | Ratio IC50 (A549 [8]): 3 | TGI (A549 [9]): 67.1% | bioavailability [10]: 13% | inhibition [11]: Dose-Dependent Effect | inhibition [12]: Dose-Dependent Effect | inhibition [13]: Active | Activity (A549 [14]): Active | Activity (K562): Active | Ratio IC50 (HeLa): 3 | inhibition in vivo at 25 mg/kg (A549 [15]): 43.2% | Activity (A549 [16]): Dose-Dependent Effect | Activity (A549 [17]): Dose-Dependent Effect | MTD at 120 h [18]: ≤ 200 mg/kg

Source: ChEMBL document CHEMBL4842385, “Indirubin Derivatives as Dual Inhibitors Targeting Cyclin-Dependent Kinase and Histone Deacetylase for Treating Cancer” (J Med Chem, 2021)
